# Data from patent US11236087B2, “Highly active pyrazolo-piperidine substituted indole-2-carboxamides active against the hepatitis B virus (HBV)” (AiCuris GmbH & Co. KG, priority 2017, dated 2022).
# Experiments:
# [1] = system: HBV; assay: Determination of HBV DNA from the supernatants of HepAD38 cells (anti-HBV activity); type: cell-based, hepatitis B virus; conditions: Hepatitis B virus, 144 h; HBV DNA in HepAD38 supernatant, day 6, qPCR; read-out: Cell Activity (EC50)
# Procedure, shortened: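 HepAD38 cells, tetracycline withdrawn to induce HBV, treated with serial half-log compound dilutions; on day 6 HBV DNA purified from filtered supernatant and quantified by real-time PCR against HBV plasmid standards; EC50 from relative copy numbers by non-linear regression, three experiments in triplicate.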
# [2] = biological target: T1, HBV core protein (UniProt P03146); assay: Biochemical capsid assembly assay (fluorescence quenching); parameters: species or system hepatitis B virus; conditions: read-out: Assembly Activity (IC50); BODIPY-FL labelled core protein, 300 μM NaCl, read 6 min after start
# T1 construct: fused on or other part: BODIPY-FL maleimide label on the C-terminal Cys150
# T1 sequence (P03146 whole entry, looked up, the tested form may be a part): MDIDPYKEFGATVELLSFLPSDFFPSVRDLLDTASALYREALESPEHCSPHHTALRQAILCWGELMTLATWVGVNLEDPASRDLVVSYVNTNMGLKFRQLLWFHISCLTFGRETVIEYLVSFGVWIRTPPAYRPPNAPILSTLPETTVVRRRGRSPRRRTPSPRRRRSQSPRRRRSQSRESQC
# Procedure, shortened: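 Purified E. coli-expressed HBV core protein (aa 1-149 plus Cys150), BODIPY-FL maleimide-labelled, at 1.0-2.0 μM in 50 mM HEPES pH 7.5 with 0.5% DMSO was used. Compounds were tested at 8 concentrations (0.5-log dilutions from 100, 31.6 or 10 μM). Assembly was started with NaCl ([…]), and fluorescence quenching was read after 6 min (ex 477/em 525 nm). EC50 was determined by non-linear regression.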
# [3] = Cell viability assay (AlamarBlue) in HepAD38 cells; conditions: human
Compound,EC50 [1] [µM],IC50 [2] [µM],CC50 at 6 days [3] [µM]
"CN(C(=O)c1n[nH]c2c1CN(C(=O)c1cc3ccccc3[nH]1)CC2)C1CCCOC1 (stereo not drawn) [Example 193, 5-(1H-indole-2-carbonyl)-N-methyl-N-(oxan-3-yl)-1H,4H,5H,6H,7H-pyrazolo[4,3-c]pyridine-3-carboxamide]",1 to 25,< 100,> 10
"CC(C)(C)OC(=O)N[C@H]1CCN(C(=O)c2n[nH]c3c2CN(C(=O)c2cc4ccccc4[nH]2)CC3)C1 [Example 194, tert-butyl N-[(3S)-1-[5-(1H-indole-2-carbonyl)-1H,4H,5H,6H,7H-pyrazolo[4,3-c]pyridine-3-carbonyl]pyrrolidin-3-yl]carbamate]",1 to 25,< 100,> 10
"O=C(c1cc2ccccc2[nH]1)N1CCc2[nH]nc(C(=O)N3CCOCC34CC4)c2C1 [Example 195, 2-(3-{7-oxa-4-azaspiro[2.5]octane-4-carbonyl}-1H,4H,5H,6H,7H-pyrazolo[4,3-c]pyridine-5-carbonyl)-1H-indole]",< 1,5 to 10,> 10
"CN(OCCO)C(=O)c1n[nH]c2c1CN(C(=O)c1cc3c(Cl)cccc3[nH]1)CC2 [Example 196, 5-(4-chloro-1H-indole-2-carbonyl)-N-(2-hydroxyethoxy)-N-methyl-1H,4H,5H,6H,7H-pyrazolo[4,3-c]pyridine-3-carboxamide]",< 1,< 5,> 10
"Cc1cccc2[nH]c(C(=O)N3CCc4[nH]nc(C(=O)N(C)OCCO)c4C3)cc12 [Example 197, N-(2-hydroxyethoxy)-N-methyl-5-(4-methyl-1H-indole-2-carbonyl)-1H,4H,5H,6H,7H-pyrazolo[4,3-c]pyridine-3-carboxamide]",< 1,< 5,> 10
"CN(OCCO)C(=O)c1n[nH]c2c1CN(C(=O)c1cc3ccccc3[nH]1)CC2 [Example 198, N-(2-hydroxyethoxy)-5-(1H-indole-2-carbonyl)-N-methyl-1H,4H,5H,6H,7H-pyrazolo[4,3-c]pyridine-3-carboxamide]",< 1,< 5,> 10
"CN(C(=O)c1n[nH]c2c1CN(C(=O)c1cc3ccccc3[nH]1)CC2)C1CCOCC1 [Example 199, 5-(1H-indole-2-carbonyl)-N-methyl-N-(oxan-4-yl)-1H,4H,5H,6H,7H-pyrazolo[4,3-c]pyridine-3-carboxamide]",1 to 25,< 100,> 10
"[2H]C([2H])([2H])N(C(=O)c1n[nH]c2c1CN(C(=O)c1cc3ccccc3[nH]1)CC2)C1(COC)CC1 [Example 201, 5-(1H-indole-2-carbonyl)-N-[1-(methoxymethyl)cyclopropyl]-N-(2H3)methyl-1H,4H,5H,6H,7H-pyrazolo[4,3-c]pyridine-3-carboxamide]",< 1,< 5,> 10
"COCC1(NC(=O)c2n[nH]c3c2CN(C(=O)c2cc4ccccc4[nH]2)CC3)CC1 [Example 202, 5-(1H-indole-2-carbonyl)-N-[1-(methoxymethyl)cyclopropyl]-1H,4H,5H,6H,7H-pyrazolo[4,3-c]pyridine-3-carboxamide]",< 1,< 5,> 10
"O=C(c1cc2ccccc2[nH]1)N1CCc2[nH]nc(OC3CCCC3)c2C1 [Example 203, 2-[3-(cyclopentyloxy)-1H,4H,5H,6H,7H-pyrazolo[4,3-c]pyridine-5-carbonyl]-1H-indole]",< 1,5 to 10,> 10
"COCC1(N(C)C(=O)c2n[nH]c3c2CN(C(=O)c2cc4cc(F)ccc4[nH]2)CC3)CC1 [Example 204, 5-(5-fluoro-1H-indole-2-carbonyl)-N-[1-(methoxymethyl)cyclopropyl]-N-methyl-1H,4H,5H,6H,7H-pyrazolo[4,3-c]pyridine-3-carboxamide]",< 1,< 5,> 10
"COCC1(N(C)C(=O)c2n[nH]c3c2CN(C(=O)c2cc4c(C(C)(F)F)cc(F)cc4[nH]2)CC3)CC1 [Example 205, 5-[4-(1,1-difluoroethyl)-6-fluoro-1H-indole-2-carbonyl]-N-[1-(methoxymethyl)cyclopropyl]-N-methyl-1H,4H,5H,6H,7H-pyrazolo[4,3-c]pyridine-3-carboxamide]",< 1,< 5,> 10
"[2H]C([2H])([2H])OCC1(N(C)C(=O)c2n[nH]c3c2CN(C(=O)c2cc4ccccc4[nH]2)CC3)CC1 [Example 206, 5-(1H-indole-2-carbonyl)-N-{1-[(2H3)methoxymethyl]cyclopropyl}-N-methyl-1H,4H,5H,6H,7H-pyrazolo[4,3-c]pyridine-3-carboxamide]",< 1,< 5,> 10
"CCOCC1(N(C)C(=O)c2n[nH]c3c2CN(C(=O)c2cc4ccccc4[nH]2)CC3)CC1 [Example 207, N-[1-(ethoxymethyl)cyclopropyl]-5-(1H-indole-2-carbonyl)-N-methyl-1H,4H,5H,6H,7H-pyrazolo[4,3-c]pyridine-3-carboxamide]",< 1,< 5,> 10
"CC(C)OCC1(N(C)C(=O)c2n[nH]c3c2CN(C(=O)c2cc4ccccc4[nH]2)CC3)CC1 [Example 208, 5-(1H-indole-2-carbonyl)-N-methyl-N-{1-[(propan-2-yloxy)methyl]cyclopropyl}-1H,4H,5H,6H,7H-pyrazolo[4,3-c]pyridine-3-carboxamide]",< 1,< 5,> 10
"CS(=O)(=O)c1n[nH]c2c1CN(C(=O)c1cc3ccccc3[nH]1)CC2 [Example 211, 2-{3-methanesulfonyl-1H,4H,5H,6H,7H-pyrazolo[4,3-c]pyridine-5-carbonyl}-1H-indole]",< 1,< 5,> 10
"CN(C(=O)c1n[nH]c2c1CN(C(=O)c1cc3ccccc3[nH]1)CC2)C1CC1 [Example 232, N-cyclopropyl-5-(1H-indole-2-carbonyl)-N-methyl-1H,4H,5H,6H,7H-pyrazolo[4,3-c]pyridine-3-carboxamide]",< 1,< 5,> 10
"CN(C(=O)c1n[nH]c2c1CN(C(=O)c1cc3ccccc3[nH]1)CC2)C1(CCC(=O)O)CC1 [Example 245, 3-{1-[N-methyl 5-(1H-indole-2-carbonyl)-1H,4H,5H,6H,7H-pyrazolo[4,3-c]pyridine-3-amido]cyclopropyl}propanoic acid]",< 100,5 to 10,> 10
"CCOC(=O)CCC1(N(C)C(=O)c2n[nH]c3c2CN(C(=O)c2cc4ccccc4[nH]2)CC3)CC1 [Example 246, ethyl 3-{1-[N-methyl 5-(1H-indole-2-carbonyl)-1H,4H,5H,6H,7H-pyrazolo[4,3-c]pyridine-3-amido]cyclopropyl}propanoate]",< 100,< 100,> 10
"CN(CCC(=O)NS(=O)(=O)C1CC1)C(=O)c1[nH]nc2c1CN(C(=O)c1cc3ccccc3[nH]1)CC2 [Example 247, N-(cyclopropanesulfonyl)-3-{1-[5-(1H-indole-2-carbonyl)-2H,4H,5H,6H,7H-pyrazolo[4,3-c]pyridin-3-yl]-N-methylformamido}propanamide]",< 100,< 100,> 10
"COCCC1(N(C)C(=O)c2[nH]nc3c2CN(C(=O)c2cc4ccccc4[nH]2)CC3)CC1 [Example 248, 5-(1H-indole-2-carbonyl)-N-[1-(2-methoxyethyl)cyclopropyl]-N-methyl-2H,4H,5H,6H,7H-pyrazolo[4,3-c]pyridine-3-carboxamide]",< 1,< 5,> 10
"CN(C(=O)c1[nH]nc2c1CN(C(=O)c1cc3ccccc3[nH]1)CC2)C1(CO)COC1 [Example 249, N-[3-(hydroxymethyl)oxetan-3-yl]-5-(1H-indole-2-carbonyl)-N-methyl-2H,4H,5H,6H,7H-pyrazolo[4,3-c]pyridine-3-carboxamide]",< 1,< 5,> 10
"CN(C(=O)c1[nH]nc2c1CN(C(=O)c1cc3ccccc3[nH]1)CC2)C1(C)COC1 [Example 251, 5-(1H-indole-2-carbonyl)-N-methyl-N-(3-methyloxetan-3-yl)-2H,4H,5H,6H,7H-pyrazolo[4,3-c]pyridine-3-carboxamide]",< 1,< 5,> 10
"CN(C(=O)c1[nH]nc2c1CN(C(=O)c1cc3ccccc3[nH]1)CC2)[C@H]1CCC[C@@H]1O [Example 252, N-[(1S,2S)-2-hydroxycyclopentyl]-5-(1H-indole-2-carbonyl)-N-methyl-2H,4H,5H,6H,7H-pyrazolo[4,3-c]pyridine-3-carboxamide]",< 1,< 5,> 10
"CN(CC1(O)CCC1)C(=O)c1n[nH]c2c1CN(C(=O)c1cc3ccccc3[nH]1)CC2 [Example 254, N-[(1-hydroxycyclobutyl)methyl]-5-(1H-indole-2-carbonyl)-N-methyl-1H,4H,5H,6H,7H-pyrazolo[4,3-c]pyridine-3-carboxamide]",< 1,< 5,> 10
